Literature values as cited in patent US20140377346A1, “BOSENTAN CONTROLLED RELEASE ORAL PREPARATION” (HANALL BIOPHARMA CO., LTD., priority 2012, published 2014).
Read-outs that look alike come from different tables or passages of the source.

water needed to dissolve 0.1 mg of bosentan (pH 1.0): ≥ 100 mL
water needed to dissolve 0.1 mg of bosentan (pH 5.0): ≥ 50 mL
water needed to dissolve 0.1 mg of bosentan (pH 7.5): approximately 0.3 ml
SMILES: COc1ccccc1Oc1c(NS(=O)(=O)c2ccc(C(C)(C)C)cc2)nc(-c2ncccn2)nc1OCCO [bosentan, 4-tert-butyl-N-[6-(2-hydroxy-ethoxy)-5-(2-methoxy-phenoxy)-2-(pyrimidin-2-yl)-pyrimidin-4-yl]-benzenesulfonamide]
